# Experimental data as given in paper PMC6155239, “Targeting PFKFB3 radiosensitizes cancer cells and suppresses homologous recombination” (Nature Communications, 2018).
# Key:
# [1] = molecular target: T1, EGFR (Homo sapiens, UniProt P00533); test: KINOMEscan; assay type: binding; details: 2000 nM; read-out: Percent Control
# T1 construct: purchased DiscoverX (Eurofins) KINOMEscan / scanEDGE, inferred from the naming style
# [2] = molecular target: T2, AURKA (Homo sapiens, UniProt O14965); test: KINOMEscan; assay type: binding; details: 2000 nM; read-out: Percent Control
# T2 construct: purchased DiscoverX (Eurofins) KINOMEscan / scanEDGE, inferred from the naming style
# [3] = molecular target: T3, IGF1R (Homo sapiens, UniProt P08069); test: KINOMEscan; assay type: binding; details: 2000 nM; read-out: Percent Control
# T3 construct: purchased DiscoverX (Eurofins) KINOMEscan / scanEDGE, inferred from the naming style
# [4] = molecular target: T4, BMPR2 (Homo sapiens, UniProt Q13873); test: KINOMEscan; assay type: binding; details: 2000 nM; read-out: Percent Control
# T4 construct: purchased DiscoverX (Eurofins) KINOMEscan / scanEDGE, inferred from the naming style
# [5] = molecular target: T5, AKT2 (Homo sapiens, UniProt P31751); test: KINOMEscan; assay type: binding; details: 2000 nM; read-out: Percent Control
# T5 construct: purchased DiscoverX (Eurofins) KINOMEscan / scanEDGE, inferred from the naming style
# [6] = molecular target: T6, FLT3 (Homo sapiens, UniProt P36888); test: KINOMEscan; assay type: binding; details: 2000 nM; read-out: Percent Control
# T6 construct: purchased DiscoverX (Eurofins) KINOMEscan / scanEDGE, inferred from the naming style
# [7] = molecular target: T7, CDK9 (Homo sapiens, UniProt P50750); test: KINOMEscan; assay type: binding; details: 2000 nM; read-out: Percent Control
# T7 construct: purchased DiscoverX (Eurofins) KINOMEscan / scanEDGE, inferred from the naming style
# [8] = molecular target: T8, EGFR(L858R) (Homo sapiens, UniProt P00533, L858R); test: KINOMEscan; assay type: binding; details: 2000 nM; read-out: Percent Control
# T8 construct: purchased DiscoverX (Eurofins) KINOMEscan / scanEDGE, inferred from the naming style
# [9] = molecular target: T9, ERBB2 (Homo sapiens, UniProt P04626); test: KINOMEscan; assay type: binding; details: 2000 nM; read-out: Percent Control
# T9 construct: purchased DiscoverX (Eurofins) KINOMEscan / scanEDGE, inferred from the naming style
# [10] = molecular target: T10, CDK7 (Homo sapiens, UniProt P50613); test: KINOMEscan; assay type: binding; details: 2000 nM; read-out: Percent Control
# T10 construct: purchased DiscoverX (Eurofins) KINOMEscan / scanEDGE, inferred from the naming style
# [11] = molecular target: PFKFB3 (Homo sapiens, UniProt Q16875); test: Isothermal titration calorimetry; assay type: binding; details: 25 °C
# Protocol: ITC was performed for the titration of 200 μM KAN0438241 into 20 μM PFKFB3 protein. Raw ITC data was recorded for 12 × 3 μl injections (preceded by 0.4 μl injection). Data was collected with PEAQ-ITC system (MicroCal™, Malvern Instruments) at 25 °C, 10 μcal/s Reference Power, High Feedback, and 750 rpm stirring rate. A constant value of the heat of dilution was fitted along with the binding parameters. Data analysis performed with dedicated PEAQ-ITC analysis software (MicroCal, Malvern Instruments).
# [12] = molecular target: T11, CSNK1D (Homo sapiens, UniProt P48730); test: KINOMEscan; assay type: binding; details: 2000 nM; read-out: Percent Control
# T11 construct: purchased DiscoverX (Eurofins) KINOMEscan / scanEDGE, inferred from the naming style
# [13] = molecular target: T12, BRAF (Homo sapiens, UniProt P15056); test: KINOMEscan; assay type: binding; details: 2000 nM; read-out: Percent Control
# T12 construct: purchased DiscoverX (Eurofins) KINOMEscan / scanEDGE, inferred from the naming style
# [14] = molecular target: T13, GSK3B (Homo sapiens, UniProt P49841); test: KINOMEscan; assay type: binding; details: 2000 nM; read-out: Percent Control
# T13 construct: purchased DiscoverX (Eurofins) KINOMEscan / scanEDGE, inferred from the naming style
# [15] = molecular target: T14, CSF1R (Homo sapiens, UniProt P07333); test: KINOMEscan; assay type: binding; details: 2000 nM; read-out: Percent Control
# T14 construct: purchased DiscoverX (Eurofins) KINOMEscan / scanEDGE, inferred from the naming style
# [16] = molecular target: T15, ABL1-nonphosphorylated (Homo sapiens, UniProt P00519); test: KINOMEscan; assay type: binding; details: 2000 nM; read-out: Percent Control
# T15 construct: purchased DiscoverX (Eurofins) KINOMEscan / scanEDGE, inferred from the naming style
# [17] = test system: BJ RAS cells; test: Clonogenic survival, BJ RAS; assay type: cell-based; details: with and without IR (2 Gy)
# Protocol: U2OS cells were transfected with indicated siRNAs and 24 h later exposed to IR (2 Gy) or left untreated and allowed to recover for 4 h. One-hundred U2OS cells were then seeded into 6-well plates and after 10 days colonies were fixed and stained with 4% methylene blue (Sigma Aldrich) in methanol. BJ TERT (500 cells), BJ RAS (200 cells), or U2OS (200 cells) were seeded into 6-well plates 24 h prior to treatment with inhibitors as indicated or vehicle for 24 h and then subjected to IR (2 Gy). The inhibitors were washed out 72 h later and colonies were fixed 4 days (BJ RAS) or 7 days (BJ TERT) later with 4% methylene blue in methanol.
# [18] = test system: U2OS cells; test: Cell cycle analysis (propidium iodide, flow cytometry); assay type: cell-based; details: 24 h post-IR
# Protocol: For cell cycle analysis, cells were treated or transfected with siRNA as described and harvested at the indicated time points with trypsin. For studies using IR, cells were exposed to IR with 2 Gy, and harvested at the indicated time points with trypsin. The cells were washed in PBS and fixed with 70% ethanol in PBS at 4 °C for 1 h and then stored at −20 °C until staining. Ethanol was removed by centrifugation and cells were then washed in PBS before staining DNA with propidium iodide (PI) solution containing 40 μg/mL PI, 100 μg/mL RNase A, and 0.1% Triton X-100 (Sigma Aldrich). Cells were analyzed by flow cytometry on a FACS Navios (Beckman Coulter) using Kaluza software.
# [19] = test system: U2OS cells; test: DDR signaling, western blot / RPA32 intensity; assay type: cell-based
# Protocol: Cells were lysed on ice using the NP-40 lysis buffer (50 mM Tris–HCl pH 8.0, 150 mM NaCl, 1% NP-40) supplemented with protease and phosphatase inhibitors (Roche). Protein lysates were quantified using the Pierce BCA Protein Assay Kit (ThermoFisher Scientific), equal amounts of protein were heated to 70 °C in NuPAGE LDS Sample Buffer (ThermoFisher Scientific) and loaded on Mini-PROTEAN® precast gels (Bio-Rad) and run at 120 V. Transfer to nitrocellulose membrane (Bio-Rad) was done using Trans-Blot Turbo Transfer System (Bio-Rad). Membranes were blocked for 1 h at RT in blocking buffer (5% BSA, 0.1% Tween-20 in PBS, or 1:1 Li-Cor Blocking Buffer/TBS + 0.05% Tween-20 (TBS-T)), incubated with primary antibodies overnight at 4 °C and then incubated 1 h at RT with secondary antibodies diluted at 1:10,000 in 1:1 Li-Cor blocking buffer/TBS-T. Bands were visualized with an Odyssey Fc Imager and analyzed with ImageJ or with Image Studio Software (Li-Cor Biosciences). Uncropped western blots are shown in Supplementary Figure 10, 11, 12, 13, 14, 15, 16.
# [20] = test system: U2OS cells; test: Intracellular dNTP measurement (HIV-1 RT-based); assay type: cell-based; details: 4 h and 24 h, relative to DMSO
# Protocol: HIV-1 RT-based dNTP assay[55] was used to quantify dNTP levels in U2OS cells upon indicated treatment and time points. Briefly, cells were trypsinized and counted before dNTPs extraction by 60% methanol solution, the dried dNTP samples were resuspended with water, and then RT-based primer extension reaction was performed to determine the amounts of dNTPs. Obtained dNTP amounts were normalized to 1 × 10^6 cells, and dNTP levels were related to control treatment with DMSO.
# PFKFB3, sequence (Q16875 whole entry): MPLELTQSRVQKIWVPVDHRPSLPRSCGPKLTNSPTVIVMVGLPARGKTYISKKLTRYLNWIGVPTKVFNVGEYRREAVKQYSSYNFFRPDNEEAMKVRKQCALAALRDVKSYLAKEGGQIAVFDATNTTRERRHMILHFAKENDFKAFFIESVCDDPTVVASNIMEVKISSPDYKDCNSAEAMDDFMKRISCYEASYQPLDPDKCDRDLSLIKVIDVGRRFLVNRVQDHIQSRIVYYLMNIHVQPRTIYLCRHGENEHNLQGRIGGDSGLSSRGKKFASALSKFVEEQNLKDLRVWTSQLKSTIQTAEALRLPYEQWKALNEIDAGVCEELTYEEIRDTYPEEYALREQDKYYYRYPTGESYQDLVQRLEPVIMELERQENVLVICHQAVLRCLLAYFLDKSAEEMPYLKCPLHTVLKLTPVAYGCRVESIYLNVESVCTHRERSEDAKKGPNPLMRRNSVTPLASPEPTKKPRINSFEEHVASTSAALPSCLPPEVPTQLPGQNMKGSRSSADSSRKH
# T8 sequence (P00533 25-1210 L858R): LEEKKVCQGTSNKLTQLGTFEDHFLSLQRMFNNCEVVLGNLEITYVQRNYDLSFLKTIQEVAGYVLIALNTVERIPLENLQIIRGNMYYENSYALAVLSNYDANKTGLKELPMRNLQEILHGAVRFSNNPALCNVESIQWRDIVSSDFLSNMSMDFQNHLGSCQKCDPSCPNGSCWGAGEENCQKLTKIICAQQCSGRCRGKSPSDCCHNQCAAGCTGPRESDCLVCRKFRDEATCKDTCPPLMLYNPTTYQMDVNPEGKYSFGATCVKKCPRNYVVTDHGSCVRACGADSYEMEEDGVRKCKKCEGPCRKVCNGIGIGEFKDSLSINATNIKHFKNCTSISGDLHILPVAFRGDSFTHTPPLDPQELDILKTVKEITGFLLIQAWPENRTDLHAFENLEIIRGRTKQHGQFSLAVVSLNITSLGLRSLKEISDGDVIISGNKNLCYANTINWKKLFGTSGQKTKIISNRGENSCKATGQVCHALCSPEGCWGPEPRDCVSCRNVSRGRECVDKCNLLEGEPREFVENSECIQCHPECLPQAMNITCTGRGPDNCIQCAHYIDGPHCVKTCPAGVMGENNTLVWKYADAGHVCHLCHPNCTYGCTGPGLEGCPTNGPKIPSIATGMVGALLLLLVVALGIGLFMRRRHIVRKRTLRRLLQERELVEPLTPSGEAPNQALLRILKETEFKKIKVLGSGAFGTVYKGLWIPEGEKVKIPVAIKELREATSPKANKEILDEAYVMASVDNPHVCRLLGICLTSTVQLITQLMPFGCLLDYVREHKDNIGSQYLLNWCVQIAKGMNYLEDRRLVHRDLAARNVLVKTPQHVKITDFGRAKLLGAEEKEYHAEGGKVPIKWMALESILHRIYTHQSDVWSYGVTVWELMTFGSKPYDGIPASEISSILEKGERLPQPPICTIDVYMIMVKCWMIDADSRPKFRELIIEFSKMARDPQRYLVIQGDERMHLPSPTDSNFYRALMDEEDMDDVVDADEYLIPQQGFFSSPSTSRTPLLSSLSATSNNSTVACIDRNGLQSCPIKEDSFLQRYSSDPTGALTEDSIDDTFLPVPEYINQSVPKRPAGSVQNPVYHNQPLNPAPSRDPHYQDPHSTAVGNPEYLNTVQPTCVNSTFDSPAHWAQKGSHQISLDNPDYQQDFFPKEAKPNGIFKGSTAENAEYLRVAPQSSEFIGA
# T6 sequence (P36888 27-993): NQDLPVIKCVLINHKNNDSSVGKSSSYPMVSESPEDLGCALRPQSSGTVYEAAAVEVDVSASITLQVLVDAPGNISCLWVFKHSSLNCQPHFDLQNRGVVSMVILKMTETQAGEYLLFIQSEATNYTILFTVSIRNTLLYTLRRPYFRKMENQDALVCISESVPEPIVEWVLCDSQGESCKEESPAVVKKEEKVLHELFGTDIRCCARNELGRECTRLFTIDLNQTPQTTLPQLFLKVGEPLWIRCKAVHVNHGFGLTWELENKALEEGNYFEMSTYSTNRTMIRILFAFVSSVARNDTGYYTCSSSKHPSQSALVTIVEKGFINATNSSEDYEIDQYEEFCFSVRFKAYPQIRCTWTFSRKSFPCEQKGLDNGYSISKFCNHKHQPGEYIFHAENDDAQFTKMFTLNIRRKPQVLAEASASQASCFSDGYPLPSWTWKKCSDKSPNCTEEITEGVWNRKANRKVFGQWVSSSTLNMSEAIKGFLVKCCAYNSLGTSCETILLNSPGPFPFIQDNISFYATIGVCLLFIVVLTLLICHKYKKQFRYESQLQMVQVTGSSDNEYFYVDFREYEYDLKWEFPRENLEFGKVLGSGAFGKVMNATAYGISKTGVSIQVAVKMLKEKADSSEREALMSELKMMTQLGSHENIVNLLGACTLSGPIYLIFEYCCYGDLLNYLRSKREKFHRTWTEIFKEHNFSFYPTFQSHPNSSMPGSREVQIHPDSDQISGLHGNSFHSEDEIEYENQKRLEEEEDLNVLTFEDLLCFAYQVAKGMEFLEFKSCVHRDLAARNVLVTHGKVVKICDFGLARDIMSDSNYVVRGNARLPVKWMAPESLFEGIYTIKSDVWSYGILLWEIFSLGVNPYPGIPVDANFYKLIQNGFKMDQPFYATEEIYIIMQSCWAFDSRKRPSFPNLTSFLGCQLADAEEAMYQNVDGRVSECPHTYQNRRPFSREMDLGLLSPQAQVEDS
# T12 sequence (P15056 whole entry): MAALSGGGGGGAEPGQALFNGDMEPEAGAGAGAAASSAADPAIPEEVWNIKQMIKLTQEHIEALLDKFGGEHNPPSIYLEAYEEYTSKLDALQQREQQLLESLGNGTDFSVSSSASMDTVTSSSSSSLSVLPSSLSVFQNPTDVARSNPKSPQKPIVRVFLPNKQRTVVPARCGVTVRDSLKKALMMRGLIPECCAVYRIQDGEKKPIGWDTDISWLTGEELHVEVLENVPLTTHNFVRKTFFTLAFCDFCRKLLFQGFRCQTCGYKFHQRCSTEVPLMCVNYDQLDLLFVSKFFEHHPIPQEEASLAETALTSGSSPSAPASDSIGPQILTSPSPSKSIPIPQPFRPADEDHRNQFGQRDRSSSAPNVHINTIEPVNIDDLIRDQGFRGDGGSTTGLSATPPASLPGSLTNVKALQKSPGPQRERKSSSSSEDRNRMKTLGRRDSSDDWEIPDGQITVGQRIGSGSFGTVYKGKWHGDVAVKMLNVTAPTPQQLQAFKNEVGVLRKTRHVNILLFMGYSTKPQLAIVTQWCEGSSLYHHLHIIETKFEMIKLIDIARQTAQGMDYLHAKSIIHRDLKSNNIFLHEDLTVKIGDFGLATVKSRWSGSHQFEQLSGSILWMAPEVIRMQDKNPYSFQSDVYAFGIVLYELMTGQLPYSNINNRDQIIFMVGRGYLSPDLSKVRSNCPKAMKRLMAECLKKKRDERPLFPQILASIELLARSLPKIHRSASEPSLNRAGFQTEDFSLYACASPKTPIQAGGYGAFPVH
# T10 sequence (P50613 whole entry): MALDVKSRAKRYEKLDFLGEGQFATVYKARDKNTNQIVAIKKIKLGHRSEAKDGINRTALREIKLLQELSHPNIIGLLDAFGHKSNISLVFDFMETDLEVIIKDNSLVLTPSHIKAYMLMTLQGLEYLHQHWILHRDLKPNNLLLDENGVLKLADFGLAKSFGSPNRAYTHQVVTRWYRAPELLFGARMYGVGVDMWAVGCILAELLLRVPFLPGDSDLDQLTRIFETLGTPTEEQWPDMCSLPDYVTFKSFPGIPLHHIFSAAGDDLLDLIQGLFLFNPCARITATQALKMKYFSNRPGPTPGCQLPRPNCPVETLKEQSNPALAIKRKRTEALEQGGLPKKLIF
# T4 sequence (Q13873 27-1038): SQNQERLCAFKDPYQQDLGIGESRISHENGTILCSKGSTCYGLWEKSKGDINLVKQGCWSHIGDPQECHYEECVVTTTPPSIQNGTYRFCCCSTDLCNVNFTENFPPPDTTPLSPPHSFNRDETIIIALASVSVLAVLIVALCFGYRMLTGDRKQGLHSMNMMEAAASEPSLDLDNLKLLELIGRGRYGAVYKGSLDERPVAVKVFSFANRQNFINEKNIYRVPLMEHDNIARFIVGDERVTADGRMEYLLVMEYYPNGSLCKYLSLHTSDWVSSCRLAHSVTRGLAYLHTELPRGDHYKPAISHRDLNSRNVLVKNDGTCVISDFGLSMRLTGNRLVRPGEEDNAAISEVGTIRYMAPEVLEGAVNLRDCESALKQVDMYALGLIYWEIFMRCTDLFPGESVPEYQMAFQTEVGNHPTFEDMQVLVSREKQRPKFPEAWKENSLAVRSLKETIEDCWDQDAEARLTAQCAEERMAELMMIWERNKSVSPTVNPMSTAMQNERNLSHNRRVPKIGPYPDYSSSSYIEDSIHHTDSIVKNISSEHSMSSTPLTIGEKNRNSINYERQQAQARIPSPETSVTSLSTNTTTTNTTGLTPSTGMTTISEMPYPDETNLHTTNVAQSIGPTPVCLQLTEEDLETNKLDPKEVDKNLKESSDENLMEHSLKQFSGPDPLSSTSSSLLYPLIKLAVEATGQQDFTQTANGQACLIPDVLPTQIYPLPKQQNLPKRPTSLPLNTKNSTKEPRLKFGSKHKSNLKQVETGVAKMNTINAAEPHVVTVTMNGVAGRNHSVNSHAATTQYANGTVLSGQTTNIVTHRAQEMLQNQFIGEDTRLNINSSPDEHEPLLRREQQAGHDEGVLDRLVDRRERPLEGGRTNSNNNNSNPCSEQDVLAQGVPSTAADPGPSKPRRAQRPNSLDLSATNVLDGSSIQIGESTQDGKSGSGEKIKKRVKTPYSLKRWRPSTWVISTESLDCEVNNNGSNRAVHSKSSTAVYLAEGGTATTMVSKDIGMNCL
structure (smiles),measurement,setting,value
"O=C(O)c1ccc(NS(=O)(=O)c2cccc(-c3cc(F)ccc3O)c2)cc1O [KAN0438241, 4-{[(5′-Fluoro-2′-hydroxybiphenyl-3-yl)sulfonyl]amino}-2-hydroxybenzoic acid]",remaining binding at 2 µM,[1],93%
same,remaining binding at 2 µM,[2],97%
same,remaining binding at 2 µM,[3],100%
same,remaining binding at 2 µM,[4],88%
same,remaining binding at 2 µM,[5],97%
same,remaining binding at 2 µM,[6],94%
same,remaining binding at 2 µM,[7],100%
same,remaining binding at 2 µM,[8],90%
same,remaining binding at 2 µM,[9],92%
same,remaining binding at 2 µM,[10],93%
same,potency for PFKFB3 by isothermal titration calorimetry (in words),[11],sub-µM potency
same,remaining binding at 2 µM,[12],100%
same,remaining binding at 2 µM,[13],100%
same,remaining binding at 2 µM,[14],91%
same,remaining binding at 2 µM,[15],90%
same,remaining binding at 2 µM,[16],100%
"O=C(OCCO)c1ccc(NS(=O)(=O)c2cccc(-c3cc(F)ccc3O)c2)cc1O [KAN0438757, 2-Hydroxyethyl-4-{[(5′-fluoro-2′-hydroxybiphenyl-3-yl)sulfonyl]amino}-2-hydroxybenzoate]",clonogenic survival of BJ RAS (in words),[17],decreased clonogenic survival
same,accumulation of cells in G2/M phase upon IR (in words),[18],increased accumulation of cells in the G2/M phase
same,"IR-induced phosphorylation of ATM, H2AX, or KAP-1 (in words)",[19]; 10 μM 24 h,did not affect
same,"induction of RPA-coated ssDNA, p53, phosphorylation of ATR, ATM, Chk1, H2AX (in words)",[19]; no IR,did not induce
same,decrease of all four dNTPs,[20],50–75%
